Assay results published in ChEMBL document CHEMBL1201862, “PubChem BioAssay data set” (2004).
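The compound was tested at five concentrations on cells cultured in 96-well plates, with a 48-hour exposure period. GI50 is the concentration that inhibits growth by half.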 The source made the active and inactive calls. Rule as the data show it: active = GI50 up to about 1.1 µM and inactive = higher.

Legend:
Experiment in all cases: growth of human tumour cells (NCI), 48 h
[1] = test system: OVCAR-5
[2] = test system: SW-620
[3] = test system: UO-31
[4] = test system: U-251
[5] = test system: HL-60
[6] = test system: SN12C
[7] = test system: SF-268
[8] = test system: CCRF-CEM
[9] = test system: ACHN
[10] = test system: NCI-H226
[11] = test system: LOX IMVI
[12] = test system: COLO 205
[13] = test system: UACC-62
[14] = test system: HCC 2998
[15] = test system: A549
[16] = test system: OVCAR-4
[17] = test system: A498

Measured: GI50

COc1cc2c(cc1OC)C(C#N)(Cc1ccccc1)N(C(=O)c1ccccc1)C=C2 (configuration not stated)
inactive: [1] > 100 µM | [2] 81.5 µM | [3] 36 µM | [4] > 100 µM | [5] 36.4 µM | [6] > 100 µM | [7] > 100 µM | [8] 35.6 µM | [9] 82.8 µM | [10] 63 µM | [11] > 100 µM | [12] 35.2 µM | [13] 31.3 µM | [14] > 100 µM

ClC1=C(Cl)C(Cl)(Cl)c2c3c(c4c(c21)C(Cl)(Cl)C(Cl)=C4Cl)C(Cl)(Cl)C(Cl)=C3Cl
inactive: [2] > 100 µM | [4] > 100 µM | [5] > 100 µM | [6] > 100 µM | [7] > 100 µM | [8] > 100 µM | [9] > 100 µM | [10] > 100 µM | [11] > 100 µM | [15] > 100 µM | [12] > 100 µM | [14] > 100 µM

O=C(Cc1nc2ccccc2o1)C(=O)Nc1ccc(Cl)cc1Cl
inactive: [1] > 100 µM | [2] > 100 µM | [3] > 100 µM | [4] > 100 µM | [6] > 100 µM | [16] > 100 µM | [7] > 100 µM | [17] > 100 µM | [9] > 100 µM | [10] > 100 µM | [15] > 100 µM | [12] > 100 µM | [13] > 100 µM | [14] > 100 µM

CC(=O)NC(CCCCNC(=O)OCc1ccccc1)C(=O)NCc1ccccc1 (configuration not stated)
inactive: [1] > 100 µM | [2] > 100 µM | [3] > 100 µM | [4] > 100 µM | [6] > 100 µM | [16] > 100 µM | [7] > 100 µM | [17] > 100 µM | [8] > 100 µM | [9] > 100 µM | [10] > 100 µM | [11] > 100 µM | [15] > 100 µM | [12] > 100 µM | [13] > 100 µM | [14] > 100 µM

COC(=O)C1=C(SC)SC2(C(=O)OC)C3C=C(C)C4C(N13)C42C(=O)OC (configuration not stated)
inactive: [1] > 100 µM | [2] > 100 µM | [3] > 100 µM | [4] > 100 µM | [5] > 100 µM | [6] > 100 µM | [7] > 100 µM | [8] > 100 µM | [9] > 100 µM | [10] > 100 µM | [11] > 100 µM | [15] > 100 µM | [12] > 100 µM | [13] > 100 µM | [14] > 100 µM

CC(=O)NN1C(=O)C(Cc2ccccc2)c2ccccc21 (configuration not stated)
inactive: [1] > 100 µM | [2] > 100 µM | [3] > 100 µM | [4] > 100 µM | [6] > 100 µM | [16] > 100 µM | [7] > 100 µM | [17] > 100 µM | [8] > 100 µM | [9] > 100 µM | [10] > 100 µM | [11] > 100 µM | [15] > 100 µM | [12] > 100 µM | [13] > 100 µM | [14] > 100 µM

Nc1ccc(C(=O)NN2C(=O)C(Cl)C2c2ccccc2)cc1 (configuration not stated)
inactive: [1] > 100 µM | [2] > 100 µM | [3] > 100 µM | [4] > 100 µM | [6] > 100 µM | [16] > 100 µM | [7] > 100 µM | [17] > 100 µM | [8] > 100 µM | [9] > 100 µM | [10] > 100 µM | [11] > 100 µM | [15] > 100 µM | [12] > 100 µM | [13] > 100 µM | [14] > 100 µM

O=C(NCc1ccncc1)C1COc2cc(-c3cc(=O)c4ccccc4o3)ccc2O1 (configuration not stated)
inactive: [1] > 100 µM | [2] > 100 µM | [3] > 100 µM | [4] > 100 µM | [5] > 100 µM | [6] > 100 µM | [16] > 100 µM | [8] > 100 µM | [9] > 100 µM | [11] > 100 µM | [15] > 100 µM | [13] > 100 µM | [14] > 100 µM

CCSc1nc(-c2ccc(OC)cc2)c(C#N)c(=O)n1C1OCC(OC(C)=O)C(OC(C)=O)C1OC(C)=O (configuration not stated)
inactive: [1] > 100 µM | [2] > 100 µM | [3] > 100 µM | [4] > 100 µM | [6] > 100 µM | [16] > 100 µM | [7] > 100 µM | [17] > 100 µM | [9] > 100 µM | [10] > 100 µM | [15] > 100 µM | [12] > 100 µM | [13] > 100 µM | [14] > 100 µM

CCOC(=O)Nc1ccc(S(=O)(=O)I)cc1.CCOC(=O)Nc1ccc(S(=O)(=O)I)cc1.CNC(=O)N=O.NC(=O)OCCCl
inactive: [2] 61.8 µM | [3] > 100 µM | [4] > 100 µM | [5] 45.3 µM | [6] > 100 µM | [7] > 100 µM | [17] > 100 µM | [8] 74.8 µM | [9] > 100 µM | [11] > 100 µM | [15] > 100 µM | [12] > 100 µM | [13] 73.6 µM | [14] > 100 µM

O=C1c2ccccc2C2(O)c3cc4ccccc4cc3OC12O (configuration not stated)
inactive: [1] > 100 µM | [2] > 100 µM | [4] 54.7 µM | [6] 92.5 µM | [16] 84.7 µM | [7] 87.7 µM | [17] > 100 µM | [8] 47.2 µM | [9] 97.3 µM | [10] 42.4 µM | [11] 68.5 µM | [15] 44.4 µM | [12] > 100 µM | [13] 47.2 µM | [14] 54 µM

C=CCNC(=O)ON1C(=O)CCC1=O
inactive: [1] > 100 µM | [2] > 100 µM | [3] > 100 µM | [4] > 100 µM | [5] > 100 µM | [6] > 100 µM | [16] > 100 µM | [7] > 100 µM | [17] > 100 µM | [8] > 100 µM | [9] > 100 µM | [11] > 100 µM | [15] > 100 µM | [12] > 100 µM | [13] > 100 µM | [14] > 100 µM

O=C(/C=C/c1ccccc1F)C(c1ccccc1)c1ccccc1
inactive: [2] 3.83 µM | [3] 12.3 µM | [4] 3.74 µM | [5] 3.07 µM | [6] 4 µM | [7] 3.11 µM | [8] 2.31 µM | [9] 2.56 µM | [10] 11.4 µM | [11] 1.71 µM | [15] 3.76 µM | [13] 2.08 µM
